Earlier results, collected in paper PMC10761933, “Acquired and intrinsic resistance to vemurafenib in BRAF^V600E ‐driven melanoma brain metastases” (FEBS Open Bio, 2023).

How the values were obtained:
[1] = WT mice; cited from earlier work
[2] = test system: A375 cells; conditions: read-out: IC50 against A375 cells; cited from earlier work
[3] = test system: melanoma brain metastases; conditions: MBM patients, treatment alone; cited from earlier work
[4] = mice; stated without reference; cited from earlier work

CC(C)(C)c1nc(-c2cccc(NS(=O)(=O)c3c(F)cccc3F)c2F)c(-c2ccnc(N)n2)s1 [dabrafenib]
brain–plasma ratio [1]: approximately 0.1 | IC50 [2]: 4 nM | median overall survival [3]: 7 months

COc1cc2c(cc1OC)CN(CCc1ccc(NC(=O)c3cccc4c(=O)c5cccc(OC)c5[nH]c34)cc1)CC2 [elacridar]
t max of oral elacridar [4]: ~4 h

COC(=O)N[C@@H](C)CNc1nccc(-c2cn(C(C)C)nc2-c2cc(Cl)cc(NS(C)(=O)=O)c2F)n1 [encorafenib]
brain–plasma ratio [1]: roughly 0.004 | IC50 [2]: 4 nM
